# ChEMBL document CHEMBL5357010, “Amine Basicity of Quinoline ATP Synthase Inhibitors Drives Antibacterial Activity against Pseudomonas aeruginosa” (ACS Med Chem Lett, 2024)
# Columns and labels:
# [1] = Inhibition of Pseudomonas aeruginosa 9027 electron transport chain in inverted membrane vesicles assessed as fluorescence quenching using amino-6-chloro-2-methoxyacridine; format: cell membranes
# [2] = Inhibition of Escherichia coli electron transport chain in inverted membrane vesicles; format: cell membranes
# [3] = Inhibition of Pseudomonas aeruginosa ATP synthase expressed in Escherichia coli DK8/pASH20 inverted membrane vesicles by luciferin/luciferase luminescence assay; format: cell membranes, Membrane vesicle
# [4] = Selectivity ratio of IC50 for Pseudomonas aeruginosa 9027 electron transport chain to IC50 for Pseudomonas aeruginosa ATP synthase; format: toxicity
# Pseudomonas aeruginosa [5] = assay: Antibacterial activity against Pseudomonas aeruginosa 9027 assessed as growth inhibition incubated for 12 to 15 hrs by broth microdilution method; format: functional; conditions: time 12-15 hrs
# Pseudomonas aeruginosa [6] = assay: Antibacterial activity against Pseudomonas aeruginosa ATCC BAA-2109 assessed as growth inhibition incubated for 12 to 15 hrs by broth microdilution method; format: functional; conditions: time 12-15 hrs
# Pseudomonas aeruginosa [7] = assay: Antibacterial activity against Pseudomonas aeruginosa efflux knockout GKCW120 (Pdelta6) assessed as growth inhibition incubated for 12 to 15 hrs by broth microdilution method; format: functional; conditions: time 12-15 hrs
# Pseudomonas aeruginosa [8] = assay: Antibacterial activity against Pseudomonas aeruginosa ATCC BAA-2108 assessed as growth inhibition incubated for 12 to 15 hrs by broth microdilution method; format: functional; conditions: time 12-15 hrs
# Pseudomonas aeruginosa [9] = assay: Antibacterial activity against Pseudomonas aeruginosa ATCC BAA-2110 assessed as growth inhibition incubated for 12 to 15 hrs by broth microdilution method; format: functional; conditions: time 12-15 hrs
# [10] = Solubility of the compound in antibacterial activity assay medium; format: physicochemical
Compound,IC50 [1] [µg/mL],IC50 [3] [µg/mL],Ratio IC50 [4],other results
c1ccc(CSc2nc3ccccc3cc2CNCCc2cnc[nH]2)cc1,7,2,,IC50 [2]: 14 µg/mL
CN(C)Cc1ccc(CNCc2cc3ccccc3nc2SCc2ccccc2)cc1,27,2.3,12,MIC>85 (Pseudomonas aeruginosa [5]): >128 µg/mL; MIC>85 (Pseudomonas aeruginosa [6]): >128 µg/mL; MIC>85 (Pseudomonas aeruginosa [7]): 16 µg/mL; MIC>85 (Pseudomonas aeruginosa [8]): 64 µg/mL; MIC>85 (Pseudomonas aeruginosa [9]): >128 µg/mL
CSc1nc2ccccc2cc1CNCCCN(C)C,,43,,
CSc1nc2ccccc2cc1CNCCc1cccn1C,,5,,
CN(C)CCCCNCc1cc2ccccc2nc1SCc1ccccc1,26,1,26,
CSc1nc2ccccc2cc1CNCCC1CCN(C2CCCC2)CC1,,21,,
GENTAMICIN,,,,MIC>85 (Pseudomonas aeruginosa [5]): 2 µg/mL; MIC>85 (Pseudomonas aeruginosa [6]): 2 µg/mL; MIC>85 (Pseudomonas aeruginosa [7]): > 4 µg/mL; MIC>85 (Pseudomonas aeruginosa [8]): 16 µg/mL; MIC>85 (Pseudomonas aeruginosa [9]): 4 µg/mL
CSc1nc2ccccc2cc1CNCCCCCN(C)C,,19,,
CSc1nc2ccccc2cc1CNCc1ccc(CN(C)C)cc1,29,30,1,MIC>85 (Pseudomonas aeruginosa [5]): >256 µg/mL; MIC>85 (Pseudomonas aeruginosa [6]): 256 µg/mL; MIC>85 (Pseudomonas aeruginosa [7]): 64 µg/mL; MIC>85 (Pseudomonas aeruginosa [8]): 128 µg/mL; MIC>85 (Pseudomonas aeruginosa [9]): >256 µg/mL
CCN1CCC(CCNCc2cc3ccccc3nc2SC)CC1,,39,,
Cn1cccc1CCNCc1cc2ccccc2nc1SCc1ccccc1,,4,,
CN(C)CCCCCNCc1cc2ccccc2nc1SCc1ccccc1,57,2,28,
c1ccc(CSc2nc3ccccc3cc2CNCCC2CCN(C3CCCC3)CC2)cc1,14,1,14,
CSc1nc2ccccc2cc1CNCCc1nc(C)cc(C)n1,,67,,
CN(C)c1ccc(CNCc2cc3ccccc3nc2SCc2ccccc2)cc1,,,,solubility [10]: > 16 µg/mL
CSc1nc2ccccc2cc1CNCCc1cnc[nH]1,,16,,
CSc1nc2ccccc2cc1CNCCCCN(C)C,,68,,
CSc1nc2ccccc2cc1CNCc1ccc(N(C)C)cc1,,5,,
CN(C)CCCNCc1cc2ccccc2nc1SCc1ccccc1,44,6,7,
CCN1CCC(CCNCc2cc3ccccc3nc2SCc2ccccc2)CC1,26,1,26,
Cc1cc(C)nc(CCNCc2cc3ccccc3nc2SCc2ccccc2)n1,,3,,
